Experimental data taken from patent US8492515B2 (priority 2008, dated 2013).
“Also recorded” adds a separate entry of the source. Bridge positions count the residues as written; N and C are the ends. Square brackets hold non-standard residues; d marks the D form. Ends that are not written are not given here. Peptide text beside a SMILES is read from it. I, II: the chains in the order shown. Ac6c = NC1(C(=O)O)CCCCC1; Dab = NCC[C@H](N)C(=O)O; Dap = NC[C@H](N)C(=O)O

How the values were obtained:
[1] = system: Enterobacteriaceae strains
Description: (§1) To investigate the activity of the A3-APO metabolites, Chex1-Arg20 single chain unit and an Arg7-Arg20 common cleavage fragment were synthesized and studied for their ability to kill Enterobacteriaceae strains in undiluted Muller-Hinton broth, a true measure of potential clinical viability (Otvos et al., 2005. J. Med. Chem. 48: 5349-5359). The peptides of the invention were made on a CEM Liberty automated synthesizer with standard Fmoc-chemistry. The peptides were detached from the resin with the carboxyl terminus of the C-terminal Arg residue being in the form of an amino amide, —C(O)—NH2 (“Chex1-Arg20-NH2” and “Arg7-Arg20-NH2”), while still in the microwave chamber, and were purified by RP-HPLC. […] The biological studies carried out on chemically synthesized peptides in this example and succeeding examples were carried out on the C-terminal modified versions of the peptides wherein the C-terminal carboxylic acid function was in the form of an amide, —C(O)—NH2. Antibacterial growth inhibition assays were performed using sterile 96-well polypropylene plates (Nunc F96 microtiter plates) in a final volume of 100 μL as described previously (Cudic et al., 2002. Peptides 23: 271-283). The cell concentrations were estimated by measuring the ultraviolet absorbance at 600 nm and applying the formula cfu/mL=A600(3.8×10^8), where cfu is the number of colony-forming units. Briefly, 50 μL of a suspension of midlogarithmic phase bacterial cultures diluted to 5×10^5 cfu/mL in Muller-Hinton broth (MHB) was added to 50 μL of serially diluted peptides also dissolved in MHB. The final peptide concentration was 128 μg/mL. Cultures were then incubated at 37° C., 5% CO2 for 16-20 h without shaking, and growth inhibition was measured by recording the absorbance at 600 nm using a microplate reader. […] The minimal inhibitory concentration indicates the lowest peptide dose where no visible bacterial growth is detected after 16 hours incubation in full strength Muller-Hinton broth at 37° C. The peptide Chex-pyrr-Dap dimer was also included in the study. […] (Cudic et al., 2002. Peptides 23: 271-283).

[2] = system: E. coli SEQ102; conditions: SEQ102, 16 h
Description: as §1

[3] = system: K. pneumoniae HK123; conditions: HK123, 16 h
Description: as §1

[4] = system: S. typhimurium G10215; conditions: G10215, 16 h
Description: as §1

[5] = system: E. coli HK179; conditions: HK179, 16 h
Description: as §1

[6] = system: extended-spectrum β-lactamase producing E. coli strain (designation 5770); test: Systemic infection model, cisplatin-pretreated CD-1 mice, blood bacterial counts; format: in vivo; conditions: 40 mg/kg ip
Protocol: As peptide drugs, such as antimicrobial peptides, are predominantly cleared through the kidneys (Klootwijk et al., 1997. J. Clin. Endocrinol. Metab. 82: 3068-3073) and the kidney functions of mice are 20-fold faster than those of humans, CD-1 female mice of 15-20 g were pretreated with 18 mg/kg cisplatin for 3 days to impair kidney clearance similar to the levels observed in humans (Mathe et al., 2006. Lab. Anim. 40: 296-300) before they were challenged intraperitoneally (ip) with 10^8 CFU per g mouse of an extended-spectrum β-lactamase producing E. coli strain (designation 5770). Four, 8 and 12 hours after challenge 10 or 20 mg/kg peptide Chex1-Arg20 or 40 mg/kg imipenem (as a positive control) were administered ip to 10 mice in each group. Imipenem is a broad spectrum β-lactam antibiotic. Prior to drug administration at all three timepoints, blood was taken from the tail vein of 3-5 mice for determining blood bacterial counts. […] Antimicrobials were administered ip 4 hours after challenge 3 times in 4 hour intervals. Blood was taken immediately before antimicrobial treatments. Numbers in parentheses indicate the number of mice with <10^3 CFU/mL. Bacterial counts were determined 10 times from different dilution of blood from 5 mice in each group in each timepoints.

[7] = system: Escherichia coli 5770; test: Mouse survival after last dose, systemic infection model without cisplatin pretreatment; format: in vivo; conditions: 40 mg/kg
Protocol: The survival rate and the dynamics of survival of mice after the last dose of an antibacterial peptide treatment (12 hours post-infection) were measured in a mouse model of Escherichia coli 5770 systemic infection. In this particular study, the animals were not pretreated with cisplatin. Ten animals were used in each group. […] In the control (infected, non-treated) and the imipenem treated rows, the first numbers reflect the number of surviving animals on the day of assay measuring the efficacy of the Chex1-Arg20 and the second numbers are the surviving control animals on the day of the A3-APO efficacy assay.

[8] = blood taken from the eye of CD-1 mice injected intravenously with A3-APO; conditions: up to 240 minutes
[9] = approximately 100 μL retrieved blood (female CD-1 mice retroorbitally bled), ex vivo; conditions: 37° C., up to 30 min
[10] = system: Escherichia coli 5770; test: Blood bacterial counts before and after intraperitoneal dosing of infected CD-1 mice (FIGS. 4A, 4B); format: in vivo; conditions: compared with imipenem in the respective assay
Description: FIGS. 4A and 4B illustrate blood bacterial counts before and after intraperitoneal drug dosing to Escherichia coli 5770 infected CD-1 mice. In FIG. 4A the symbols represent bacterial counts observed for infected and non-treated mice, A3-APO treated mice and imipenem treated mice. In FIG. 4B the symbols represent bacterial counts observed for infected and non-treated mice, Chex1-Arg20-NH2 treated mice and imipenem treated mice. Identical shapes if FIGS. 4A and 4B represent identical timepoints, respectively.
Both A3-APO and Chex1-Arg20 are active in lethal systemic infections. Efficacy is shown in both the increase of survival time and the reduction of blood bacterial counts. FIGS. 4A and 4B show blood bacterial counts before and after intraperitoneal drug dosing to Escherichia coli 5770 infected CD-1 mice. In FIG. 4A the symbols represent bacterial counts observed for infected and non-treated mice, A3-APO treated mice and imipenem treated mice. In FIG. 4B the symbols represent bacterial counts observed for infected and non-treated mice, Chex1-Arg20-NH2 treated mice and imipenem treated mice. Identical shapes if FIGS. 4A and 4B represent identical timepoints, respectively.

[11] = ex vivo blood, protocol of 'Stability of Peptide A3-APO in Whole Blood'; conditions: CD-1 mice, 37° C., up to 120 min
[12] = system: E. coli D31; conditions: full strength Muller-Hinton broth, 16 hours, 37° C.
Description: as §1

With `CC[C@H](C)[C@H](NC(=O)[C@@H]1CCCN1C(=O)[C@H](CCCNC(=N)N)NC(=O)[C@@H]1CCCN1C(=O)[C@@H]1CCCN1C(=O)[C@@H](NC(=O)[C@@H]1CCCN1C(=O)[C@H](CCCNC(=N)N)NC(=O)[C@@H]1CCCN1C(=O)[C@H](CC(C)C)NC(=O)[C@H](Cc1ccc(O)cc1)NC(=O)[C@H](CO)NC(=O)CNC(=O)[C@H](CCCCN)NC(=O)[C@H](CC(=O)O)NC(=O)C1(N)CCCCC1)[C@@H](C)O)C(=O)N[C@@H](Cc1ccc(O)cc1)C(=O)N[C@@H](CC(N)=O)C(=O)N[C@@H](CCCNC(=N)N)C(=O)NC[C@H](NC(=O)[C@H](CCCNC(=N)N)NC(=O)[C@H](CC(N)=O)NC(=O)[C@H](Cc1ccc(O)cc1)NC(=O)[C@@H](NC(=O)[C@@H]1CCCN1C(=O)[C@H](CCCNC(=N)N)NC(=O)[C@@H]1CCCN1C(=O)[C@@H]1CCCN1C(=O)[C@@H](NC(=O)[C@@H]1CCCN1C(=O)[C@H](CCCNC(=N)N)NC(=O)[C@@H]1CCCN1C(=O)[C@H](CC(C)C)NC(=O)[C@H](Cc1ccc(O)cc1)NC(=O)[C@H](CO)NC(=O)CNC(=O)[C@H](CCCCN)NC(=O)[C@H](CC(=O)O)NC(=O)C1(N)CCCCC1)[C@@H](C)O)[C@@H](C)CC)C(=O)N[C@@H](CNC(C)=O)C(N)=O` [Chex-pyrr-Dap dimer] (I: H-[Ac6c]DKGSYLPRPTPPRPIYNR[Dap][Dap](Ac)-NH2 / II: H-[Ac6c]DKGSYLPRPTPPRPIYNR; amide I:20-II:C; N-terminus assumed) the “activity in full-strength Muller-Hinton broth” value ([1]; negative control) was “without significant activity”, the “MIC against E. coli SEQ102” value [2] was greater than 64 µg/mL and the “MIC against K. pneumoniae HK123” value [3] was greater than 64 µg/mL. The “MIC against S. typhimurium G10215” value [4] was greater than 64 µg/mL and the “MIC against E. coli HK179” value [5] was greater than 64 µg/mL.

In the case of `C[C@@H](O)[C@H]1C(=O)N2C(C(=O)O)=C(SCCN=CN)C[C@H]12` [Imipenem, reference compound], the “Bacterial counts in blood after inoculation/challenge” value ([6]; 4 h (blood taken before first dose)) is reported as 3.2 × 10^5 CFU/mL, the “Bacterial counts in blood after inoculation/challenge” value ([6]; 8 h) is reported as 3.7 × 10^3 CFU/mL and the “Bacterial counts in blood after inoculation/challenge” value ([6]; 12 h) is reported as < 1.2 × 10^3 CFU/mL. The “number of surviving mice (10 animals each)” value (“number of surviving mice” below) ([7]; 0 h after last dose, day of the A3-APO assay) was 9, the “number of surviving mice” value ([7]; 0 h after last dose, day of the Chex1-Arg20 assay) was 10 and the “number of surviving mice” value ([7]; 3 h after last dose, day of the A3-APO assay) was 9. For the same compound, the “number of surviving mice” value ([7]; 3 h after last dose, day of the Chex1-Arg20 assay) was 10, the “number of surviving mice” value ([7]; 6 h after last dose, day of the A3-APO assay) was 9 and the “number of surviving mice” value ([7]; 6 h after last dose, day of the Chex1-Arg20 assay) was 10. For the same compound, the “number of surviving mice” value ([7]; 9 h after last dose, day of the A3-APO assay) was 9, the “number of surviving mice” value ([7]; 9 h after last dose, day of the Chex1-Arg20 assay) was 10 and the “number of surviving mice” value ([7]; 12 h after last dose, day of the A3-APO assay) was 9. For the same compound, the “number of surviving mice” value ([7]; 12 h after last dose, day of the Chex1-Arg20 assay) was 10.

In the case of “(SEQ ID NO: 2)2-Dab (I: [Ac6c]RPDKPRPYLPRPRPPRPVR[Dab] / II: [Ac6c]RPDKPRPYLPRPRPPRPVR; amide I:21-II:C (inferred))”, the fragment found [8] is reported as “Chex1-Arg20; Chex-Arg-Pro-Asp-Lys-Pro-Arg-Pro-Tyr-Leu-Pro-Arg-Pro-Arg-Pro-Pro-Arg-Pro-Val-Arg (SEQ ID NO: 2), major, 5 minutes” and the fragment found [9] is reported as “Chex1-Val19; Chex-Arg-Pro-Asp-Lys-Pro-Arg-Pro-Tyr-Leu-Pro-Arg-Pro-Arg-Pro-Pro-Arg-Pro-Val (SEQ ID NO: 4), 30 min; also recorded: Chex1-Dab21; Chex-Arg-Pro-Asp-Lys-Pro-Arg-Pro-Tyr-Leu-Pro-Arg-Pro-Arg-Pro-Pro-Arg-Pro-Val-Arg-Dab (SEQ ID NO: 7), 30 min”.

For “Chex-Arg-Pro-Asp-Lys-Pro-Arg-Pro-Tyr-Leu-Pro-Arg-Pro-Arg--Pro-Pro-Arg-Pro-Val-Arg-NH2 ([Ac6c]RPDKPRPYLPRPRPPRPVR-NH2) [Chex1-Arg20-NH2]”, the “reduction of blood bacterial counts” value [10] was “reduced the bacterial counts to levels identical to those observed after imipenem treatment”.

For “Chex-Arg-Pro-Asp-Lys-Pro-Arg-Pro-Tyr-Leu-Pro-Arg-Pro-Arg-Pro-Pro-Arg-Pro-Val-Arg”, the cleaved bond [11] was “Val19-Arg20”.

With “RPYLPRPRPPRPVR-NH2 [Arg7-Arg20, Arg-Pro-Tyr-Leu-Pro-Arg-Pro-Arg-Pro-Pro-Arg-Pro-Val-Arg]” the “MIC values against the test strain” value [1] was greater than 64 µg/mL, the “MIC against E. coli SEQ102” value [2] was greater than 64 µg/mL and the “MIC against K. pneumoniae HK123” value [3] was greater than 64 µg/mL. For the same compound, the “MIC against S. typhimurium G10215” value [4] was greater than 64 µg/mL, the “MIC against E. coli HK179” value [5] was greater than 64 µg/mL and the “MIC against E. coli D31” value [12] was greater than 64 µg/mL.
